Results published in US9765381B2, “Mutated genes for the catalytic protein of oplophorus luciferase and use thereof” (JNC Corporation, priority 2013, dated 2017).

Key:
[1] = Substrate specificities for amino-terminal deleted nanoKAZ; format: biochemical; conditions: for luminescence activity higher than that of coelenterazine: as luminescence substrate of the luciferase mutant, general description; for Relative luminescence activity (Imax) 6h-f-CTZ: substrate 6h-f-coelenterazine; for Relative luminescence activity (Imax) 6h-f-CTZ / Relative luminescence activity (Imax) bis-CTZ / Relative luminescence activity (Imax) f-CTZ / Relative luminescence activity (Imax) h-CTZ: relative to nanoKAZ with CTZ; for Relative luminescence activity (Imax) bis-CTZ: substrate bis-coelenterazine; for Relative luminescence activity (Imax) CTZ: substrate coelenterazine (CTZ), culture medium of CHO-K1, pcDNA3 vectors, nanoKAZ with CTZ = 1.00; for Relative luminescence activity (Imax) f-CTZ: substrate f-coelenterazine; for Relative luminescence activity (Imax) h-CTZ: substrate h-coelenterazine
Protocol: The enzyme solutions of amino-terminal deleted nanoKAZ used for substrate specificity studies were prepared by the method described in EXAMPLE 12, using pcDNA3 vectors (pcDNA3-ΔN2T-nKAZ, pcDNA3-ΔN3L-nKAZ, pcDNA3-ΔN4E-nKAZ, pcDNA3-ΔN5D-nKAZ and pcDNA3-ΔN6F-nKAZ) for expression of the amino-terminal deletions, which were obtained by the method described in EXAMPLE 11. After transfection to CHO-K1 cells and then incubation for 48 hours, the culture medium were collected and stored in a frozen state. The coelenterazine analogues used for substrate specificity studies were synthesized by the methods described in publications, respectively. Specifically, coelenterazine (CTZ), h-coelenterazine (h-CTZ) and f-coelenterazine (f-CTZ), 6h-f-coelenterazine (6h-f-CTZ) were synthesized by the method described in Inouye et al (2013) Biochem. Biophys. Res. Commun. 437: 23-28, and bis-coelenterazine (bis-CTZ) was synthesized by the method described in Nakamura et al, (1997) Tetrahedron Lett. 38: 6405-6406.
A luminescence reaction was started by the addition of 2 μL of the freeze-thawed culture medium on ice to 100 μL of TE containing 1 μg of coelenterazine or its analogue. The luminescence activities were measured for 10 seconds using a luminometer (manufactured by Atto Inc.: AB2200), and the maximum intensity of luminescence (Imax) of nanoKAZ was shown as a relative luminescence activity using coelenterazine as a substrate.

[2] = test system: pcDNA3-nanoKAZ/CHO-K1 stable expressed cell line; test: Secretory inhibition by brefeldin A, nanoKAZ without secretory signal peptide sequence; format: cell-based, Chinese hamster; conditions: brefeldin A 5 μg/mL, 0-6 hours, FIG. 4
Protocol: (§1) Using the stable expressed cell lines established in EXAMPLE 14 and EXAMPLE 15, the effect of brefeldin A that inhibits exocytosis through the trans-Golgi network by the vesicle-mediated transport was compared. Specifically, each stable expressed cell lines with 2×10^5 cells were seeded to a 6-well plate in 3 mL of Ham's F-12 medium containing 10% FBS, respectively; followed by incubation at 37° C. in a 5% CO2 incubator for 48 hours. After washing twice with 3 mL of Ham's F-12 medium containing 10% FBS, brefeldin A (manufactured by Wako Pure Chemical Industries, Ltd.) was added to the culture medium at a final concentration of 5 μg/mL. As a control experiment, cells were cultured in the absence of brefeldin A. The luminescence activity in the culture medium was determined at each incubation times at 0, 1, 3 and 6 hours, using coelenterazine as a substrate.

[3] = test system: pcDNA3-GLsp-nanoKAZ/CHO-K1 stable expressed cell line; test: Secretory inhibition by brefeldin A, nanoKAZ with secretory signal peptide sequence; format: cell-based, Chinese hamster; conditions: brefeldin A 5 μg/mL, 0-6 hours, compared to absence of brefeldin A, FIG. 3
Protocol: as §1

CHO-K1 cells = test: Luminescence activity of amino-terminal deleted nanoKAZ expressed in animal cultured cells (culture medium and cell extracts); format: cell-based, Chinese hamster; conditions: coelenterazine; for Relative luminescence activity (%, Imax) pcDNA3- Cell extracts / Relative luminescence activity (%, Imax) pcDNA3- Culture medium: lacking secretory signal peptide; for Relative luminescence activity (%, Imax) pcDNA3- Cell extracts / Relative luminescence activity (%, Imax) pcDNA3-GLsp- Cell extracts: CHO-K1, cell extracts; for Relative luminescence activity (%, Imax) pcDNA3- Culture medium / Relative luminescence activity (%, Imax) pcDNA3-GLsp- Culture medium: CHO-K1, culture medium; for Relative luminescence activity (%, Imax) pcDNA3-GLsp- Cell extracts / Relative luminescence activity (%, Imax) pcDNA3-GLsp- Culture medium: with Gaussia luciferase secretory signal peptide
Protocol: Chinese hamster ovary cell line CHO-K1 was cultured in Ha F-12 medium (manufactured by Wako Pure Chemical Industries, Ltd.) supplemented with 10% (v/v) fetal bovine serum (manufactured by Biowest Inc.) (hereinafter sometimes referred to as Ham's F-12 medium). The CHO-K1 cells were seeded in a 6-well plate in 1×10^5 cells/well/2 mL medium (n=2) and cultured in an incubator at 37° C. in 5% (v/v) CO2. After 24 hours, the purified recombinant plasmid was transfected to CHO-K1 cells using a FuGene HD transfection kit (manufactured by Promega Corp.) and the cells were provided for subsequent experiment. Specifically, 1 μg of the recombinant plasmid, 0.1 μg of the internal standard vector pGL4.13 [Luc2/sv40] and 3 μL of FuGene HD were added to 100 μL of the medium and allowed to stand at room temperature for 15 minutes. Subsequently, 100 μL, of the DNA-FuGene complex was added to the cells in the 6-well plate. After incubation for 44 hours, the culture medium was collected. On the other hand, the cells expressed the KAZ mutants were washed 3 times with 3 mL of 1×PBS, then suspended in 1 mL of 1×PBS and disrupted by sonication on ice. The resultant cell extracts of nanoKAZ deletion mutants was used as enzyme solutions.
Culture media containing the secreted amino-terminal deleted nanoKAZ and cell extracts of amino-terminal deleted nanoKAZ as the enzyme solutions were prepared in the same manner as in EXAMPLE 10.
After adding of 5 μL each of the culture media and cell extracts obtained in EXAMPLE 10 and EXAMPLE 12, respectively, to 100 μL of TE containing 1 μg of coelenterazine (manufactured by JNC Corp.), a luminescence reaction was started. The luminescence activity was measured for 60 seconds using a luminometer (manufactured by Atto Inc.: AB2200), and the maximum intensity of luminescence (Imax) was given as a percentage (%).

[4] = Luminescence activity of amino-terminal deleted nanoKAZ and ZZ-fused amino-terminal deleted nanoKAZ in crude enzyme solution; format: biochemical; conditions: expressed in E. coli BL21, crude enzyme solution, coelenterazine substrate, nanoKAZ = 100; for Relative luminescence activity (%, Imax) pCold-ZZ-P-: ZZ-fused (pCold-ZZ-P- vector); for Relative luminescence activity (%, Imax) pCold-: pCold- vector
Protocol: In order to express the amino-terminal deleted nanoKAZ in E. coli, the recombinant plasmid obtained in EXAMPLE 4 was used. The E. coli BL21 strain (Novagen, Madison, Wis.) was used as a host cell. The BL21 strain carrying the recombinant plasmid was incubated in 5 mL of Luria-Bertani medium (hereinafter designated as LB medium) containing ampicillin (50 μg/mL) at 37° C. for 18 hours. The seed culture of 0.1 mL was inoculated to 10 mL of LB medium and incubated for 3 hours, followed by cooling in an ice-water bath for 1 hour. IPTG was added to the culture medium at a final concentration of 0.1 mM, followed by incubation at 15° C. for further 17 hours. After completion of the incubation, 1 mL of the culture medium was collected by centrifugation at 10,000 rpm for 2 minutes. The collected E. coli cells were suspended in 0.5 mL of 30 mM Tris-HCl (pH 7.6)-10 mM EDTA (manufactured by Wako Pure Chemical Industries, Ltd.) (hereinafter designated as TE). The E. coli cells were disrupted by sonication for 3 seconds using a Branson model 250 sonifire (Danbury, Conn.) to give a crude enzyme solution. Then, 5 μL of the crude enzyme solution was analyzed by SDS-PAGE to confirm the protein expression (FIG. 1).
To express the ZZ-fused amino-terminal deleted nanoKAZ in E. coli, the recombinant plasmid obtained in EXAMPLE 6 was used. Crude enzyme solutions were prepared using a similar manner to EXAMPLE 5 using the E. coli BL21 strain (Novagen, Madison, Wis.) as a host cell. Then, 5 μL of the crude enzyme solution obtained was subjected to SDS-PAGE analysis to confirm the protein expression (FIG. 2).
The crude enzyme solutions obtained in EXAMPLE 5 and EXAMPLE 7 were allowed to stand in an ice-water for over 1 hour and then diluted to 50-fold in TE. By addition of 1 μL each of the crude enzyme solutions to 100 μL of TE containing 1 μg of coelenterazine (manufactured by JNC Corp.), a luminescence reaction was started. The luminescence activity was measured for 60 seconds using a luminometer (manufactured by Atto AB2200); the maximum intensity of luminescence (Imax) is given as a percentage (%).

Row | Compound | luminescence activity higher than that of coelenterazine [1] | secretion of nanoKAZ into the culture medium in the presence of brefeldin A [2] | secretion of nanoKAZ into the culture medium in the presence of brefeldin A [3] | Relative luminescence activity (Imax) 6h-f-CTZ [1] | Relative luminescence activity (Imax) bis-CTZ [1] | Relative luminescence activity (Imax) CTZ [1] | Relative luminescence activity (Imax) f-CTZ [1] | Relative luminescence activity (Imax) h-CTZ [1] | Relative luminescence activity (%, Imax) pcDNA3- Cell extracts (CHO-K1 cells) [%] | Relative luminescence activity (%, Imax) pcDNA3- Culture medium (CHO-K1 cells) [%] | Relative luminescence activity (%, Imax) pcDNA3-GLsp- Cell extracts (CHO-K1 cells) [%] | Relative luminescence activity (%, Imax) pcDNA3-GLsp- Culture medium (CHO-K1 cells) [%] | Relative luminescence activity (%, Imax) pCold-ZZ-P- [4] [%] | Relative luminescence activity (%, Imax) pCold- [4] [%] | activity compared with nanoKAZ (in words) ([1]; substrates bis-CTZ, 6h-f-CTZ, h-CTZ and f-CTZ)
1 | O=c1c(Cc2ccc(F)cc2)nc2c(Cc3ccccc3)[nH]c(-c3ccccc3)cn1-2 [6h-f-coelenterazine, reference compound] | approximately 10 times |  |  |  |  |  |  |  |  |  |  |  |  |  | 
2 | C[C@H]1CCC/C=C/[C@@H]2C[C@H](O)C[C@H]2[C@H](O)/C=C/C(=O)O1 [brefeldin A] |  | secreted | markedly inhibited |  |  |  |  |  |  |  |  |  |  |  | 
3 | O=c1c(Cc2ccc(F)cc2)nc2c(Cc3ccccc3)[nH]c(-c3ccc(O)cc3)cn1-2 [f-CTZ, f-coelenterazine, reference compound] | 10 times |  |  |  |  |  |  |  |  |  |  |  |  |  | 
4 | Oc1ccc(-c2cn3c(O)c(Cc4ccccc4)nc3c(Cc3ccccc3)n2)cc1 [h-CTZ, h-coelenterazine, reference compound] | 10 times |  |  |  |  |  |  |  |  |  |  |  |  |  | 
5 | bis-coelenterazine [reference compound] | approximately 10 times |  |  |  |  |  |  |  |  |  |  |  |  |  | 
6 | nanoKAZ: mutated 19 kDa catalytic protein of Oplophorus luciferase with 16 mutations, amino acid sequence SEQ ID NO: 2 [reference compound] |  |  |  | 7.00 | 6.93 | 1.00 | 12.65 | 11.76 | 29.4 | 100 | 4.8 | 100 | 100 | 100 | 
7 | ΔN2T-nKAZ: nanoKAZ (SEQ ID NO: 2) with deletion of the phenylalanine residue at the first amino acid; SEQ ID NO: 4 |  |  |  | 8.02 | 8.99 | 1.03 | 15.04 | 13.38 | 23.3 | 93.4 | 3.4 | 97.0 | 93.4 |  | higher activity than nanoKAZ
8 | ΔN3L-nKAZ: nanoKAZ with 2 amino-terminal amino acids deleted; SEQ ID NO: 6 |  |  |  | 5.25 | 5.39 | 0.50 | 9.88 | 9.39 | 16.2 | 50.6 | 4.4 | 87.7 | 82.0 |  | 
9 | ΔN4E-nKAZ: nanoKAZ with 3 amino-terminal amino acids deleted; SEQ ID NO: 8 |  |  |  | 0.36 | 0.35 | 0.05 | 0.70 | 0.58 | 9.7 | 4.6 | 2.9 | 60.5 | 74.0 |  | 
10 | ΔN5D-nKAZ: nanoKAZ with 4 amino-terminal amino acids deleted; SEQ ID NO: 10 |  |  |  | 0.01 | 0.01 | 0.01 | 0.02 | 0.01 | 1.5 | 0.1 | 1.7 | 56.2 | 73.6 | 87.0 | 
